{"source": "EPA's ToxRefDB 2", "key": {"rat [1]": {"system": "rat", "conditions": "Combined chronic toxicity/carcinogenicity, other, Oral, Feed, dose end: 104 week, group: systemic"}, "dog": {"system": "dog", "conditions": "Chronic toxicity, beagle, Oral, Capsule, dose end: 52 week, group: systemic"}, "rat [2]": {"system": "rat", "conditions": "Subchronic oral toxicity in rodents, wistar, Feed, dose end: 6 month, group: systemic"}, "mouse [3]": {"system": "mouse", "conditions": "Prenatal developmental toxicity study, cd1, Oral, Gavage/Intubation, dose end: 16 GD"}, "rat [4]": {"system": "rat", "conditions": "Multigenerational reproductive toxicity study, wistar, Oral, Feed, dose end: 2 generation"}, "mouse [5]": {"system": "mouse", "conditions": "Subchronic oral toxicity in rodents, Feed, dose end: 90 day, group: systemic, systemic / pathology microscopic / liver / clear cell focus + systemic / pathology microscopic / liver / [other] + systemic / clinical …"}, "mouse [6]": {"system": "mouse", "conditions": "Combined chronic toxicity/carcinogenicity; other; Oral; Feed; dose end: 101 week; group: systemic; systemic / pathology microscopic / liver / enlarged vacuoles + systemic / pathology microscopic / liver / focal cellular change + systemic…"}, "mouse [7]": {"system": "mouse", "conditions": "Prenatal developmental toxicity study, cd1, Oral, Gavage/Intubation, dose end: 16 GD, group: maternal"}, "rat [8]": {"system": "rat", "conditions": "Subchronic oral toxicity in rodents, wistar, Feed, dose end: 3 month, group: systemic"}, "rat [9]": {"system": "rat", "conditions": "Peri- and post-natal toxicity study (Segment III), wistar, Oral, [Not Specified], dose end: 21 PND"}, "[10]": {"conditions": "systemic / pathology microscopic / thyroid gland / neoplasm nos + systemic / in life observation / body weight / body weight + systemic / in…"}, "[11]": {"conditions": "systemic / clinical chemistry / alkaline phosphatase (alp/alk) / alkaline phosphatase (alp/alk) + systemic / in life observation / body …"}, "[12]": {"conditions": "systemic / clinical chemistry / glucose / glucose"}, "[13]": {"conditions": "systemic / clinical chemistry / glucose / glucose + systemic / clinical chemistry / lactic acid dehydrogenase (ldh) / lactic acid …"}, "[14]": {"conditions": "group: developmental, developmental / developmental malformation / bone / supernumerary"}, "[15]": {"conditions": "group: developmental, developmental / developmental malformation / bone / supernumerary + developmental / developmental malformation / bone / [other] + …"}, "[16]": {"conditions": "group: maternal, reproductive / reproductive performance / estrous cycle / corpora lutea"}, "[17]": {"conditions": "group: offspring, developmental / offspring survival late / viability index / viability index + developmental / offspring survival late / lactation index / …"}, "[18]": {"conditions": "group: offspring, developmental / offspring survival late / viability index / viability index + reproductive / offspring survival early / dead fetuses / dead …"}, "[19]": {"conditions": "group: parental, systemic / in life observation / body weight / body weight gain"}, "[20]": {"conditions": "group: parental, systemic / in life observation / body weight / body weight gain + systemic / in life observation / body weight / body weight + systemic / …"}, "[21]": {"conditions": "group: reproductive, reproductive / reproductive performance / gestational length / gestational length + reproductive / reproductive performance / dystocia / …"}, "[22]": {"conditions": "systemic / in life observation / body weight / body weight gain + systemic / in life observation / body weight / dam weight + systemic / in …"}, "[23]": {"conditions": "systemic / organ weight / adrenal gland / absolute + systemic / organ weight / adrenal gland / relative to body weight + systemic / …"}, "[24]": {"conditions": "group: developmental, developmental / offspring survival late / viability index / viability index"}, "[25]": {"conditions": "group: maternal, reproductive / offspring survival early / dead fetuses / dead fetuses + reproductive / offspring survival early / litter size / litter size"}, "[26]": {"conditions": "group: parental, systemic / in life observation / food consumption / food consumption + systemic / in life observation / mortality / mortality"}}}
{"smiles": "C=CCOC(Cn1ccnc1)c1ccc(Cl)cc1Cl", "note": "(centres undefined) [Imazalil]", "values": [{"measurement": "LEL", "setting": "rat [1]; systemic / pathology microscopic / liver / pigmentation", "result": 14.6, "unit": "mg/kg/day"}, {"measurement": "NEL", "setting": "rat [1]; systemic / pathology microscopic / liver / pigmentation + systemic / clinical chemistry / alanine aminotransferase (alt/sgpt) / alanine …", "result": 3.6, "unit": "mg/kg/day"}, {"measurement": "LOAEL", "setting": "rat [1]; [10]", "result": 65.8, "unit": "mg/kg/day"}, {"measurement": "NOAEL", "setting": "rat [1]; [10]", "result": 10.8, "unit": "mg/kg/day"}, {"measurement": "LOAEL", "setting": "dog; [11]", "result": 20, "unit": "mg/kg/day"}, {"measurement": "NEL", "setting": "dog; [11]", "result": 1.25, "unit": "mg/kg/day"}, {"measurement": "NOAEL", "setting": "dog; [11]", "result": 2.5, "unit": "mg/kg/day"}, {"measurement": "LEL", "setting": "dog; systemic / organ weight / liver / absolute + systemic / organ weight / liver / relative to body weight", "result": 2.5, "unit": "mg/kg/day"}, {"measurement": "LEL", "setting": "rat [2]; [12]", "result": 1.25, "unit": "mg/kg/day"}, {"measurement": "NEL", "setting": "rat [2]; [12]", "result": "< 1.25", "unit": "mg/kg/day"}, {"measurement": "LOAEL", "setting": "rat [2]; [13]", "result": 20, "unit": "mg/kg/day"}, {"measurement": "NOAEL", "setting": "rat [2]; [13]", "result": 5, "unit": "mg/kg/day"}, {"measurement": "LEL", "setting": "mouse [3]; [14]", "result": 80, "unit": "mg/kg/day"}, {"measurement": "LOAEL", "setting": "mouse [3]; [14]", "result": 80, "unit": "mg/kg/day"}, {"measurement": "NEL", "setting": "mouse [3]; [15]", "result": 40, "unit": "mg/kg/day"}, {"measurement": "NOAEL", "setting": "mouse [3]; [15]", "result": 40, "unit": "mg/kg/day"}, {"measurement": "LEL", "setting": "mouse [3]; [16]", "result": 10, "unit": "mg/kg/day"}, {"measurement": "NEL", "setting": "mouse [3]; [16]", "result": "< 10", "unit": "mg/kg/day"}, {"measurement": "LOAEL", "setting": "mouse [3]; group: maternal, systemic / in life observation / body weight / body weight gain + systemic / in life observation / food consumption / food consumption", "result": 40, "unit": "mg/kg/day"}, {"measurement": "NOAEL", "setting": "mouse [3]; group: maternal, systemic / in life observation / body weight / body weight gain + systemic / in life observation / food consumption / food consumption + …", "result": 10, "unit": "mg/kg/day"}, {"measurement": "LEL", "setting": "rat [4]; [17]", "result": 5, "unit": "mg/kg/day"}, {"measurement": "NEL", "setting": "rat [4]; [17]", "result": "< 5", "unit": "mg/kg/day"}, {"measurement": "LOAEL", "setting": "rat [4]; [18]", "result": 80, "unit": "mg/kg/day"}, {"measurement": "NOAEL", "setting": "rat [4]; [18]", "result": 20, "unit": "mg/kg/day"}, {"measurement": "NEL", "setting": "rat [4]; [19]", "result": 20, "unit": "mg/kg/day"}, {"measurement": "NOAEL", "setting": "rat [4]; [19]", "result": 20, "unit": "mg/kg/day"}, {"measurement": "LEL", "setting": "rat [4]; [20]", "result": 80, "unit": "mg/kg/day"}, {"measurement": "LOAEL", "setting": "rat [4]; [20]", "result": 80, "unit": "mg/kg/day"}, {"measurement": "LOAEL", "setting": "rat [4]; group: reproductive, reproductive / reproductive performance / gestational length / gestational length", "result": 80, "unit": "mg/kg/day"}, {"measurement": "LEL", "setting": "rat [4]; [21]", "result": 80, "unit": "mg/kg/day"}, {"measurement": "NEL", "setting": "rat [4]; [21]", "result": 20, "unit": "mg/kg/day"}, {"measurement": "NOAEL", "setting": "rat [4]; [21]", "result": 20, "unit": "mg/kg/day"}, {"measurement": "LEL", "setting": "mouse [5]", "result": 38.6, "unit": "mg/kg/day"}, {"measurement": "LOAEL", "setting": "mouse [5]", "result": 38.6, "unit": "mg/kg/day"}, {"measurement": "NEL", "setting": "mouse [5]", "result": 9.5, "unit": "mg/kg/day"}, {"measurement": "NOAEL", "setting": "mouse [5]", "result": 9.5, "unit": "mg/kg/day"}, {"measurement": "LEL", "setting": "mouse [6]", "result": 28, "unit": "mg/kg/day"}, {"measurement": "LOAEL", "setting": "mouse [6]", "result": 28, "unit": "mg/kg/day"}, {"measurement": "NEL", "setting": "mouse [6]", "result": 6.67, "unit": "mg/kg/day"}, {"measurement": "NOAEL", "setting": "mouse [6]", "result": 6.67, "unit": "mg/kg/day"}, {"measurement": "LOAEL", "setting": "mouse [7]; systemic / in life observation / body weight / body weight gain", "result": 80, "unit": "mg/kg/day"}, {"measurement": "LEL", "setting": "mouse [7]; [22]", "result": 80, "unit": "mg/kg/day"}, {"measurement": "NEL", "setting": "mouse [7]; [22]", "result": 40, "unit": "mg/kg/day"}, {"measurement": "NOAEL", "setting": "mouse [7]; [22]", "result": 40, "unit": "mg/kg/day"}, {"measurement": "LOAEL", "setting": "rat [8]; [23]", "result": 37.9, "unit": "mg/kg/day"}, {"measurement": "NOAEL", "setting": "rat [8]; [23]", "result": 18.7, "unit": "mg/kg/day"}, {"measurement": "NEL", "setting": "rat [8]; systemic / organ weight / liver / absolute + systemic / organ weight / adrenal gland / absolute + systemic / organ weight / adrenal gland / …", "result": 90.1, "unit": "mg/kg/day"}, {"measurement": "LEL", "setting": "rat [9]; [24]", "result": 80, "unit": "mg/kg/day"}, {"measurement": "LOAEL", "setting": "rat [9]; [24]", "result": "> 80", "unit": "mg/kg/day"}, {"measurement": "NEL", "setting": "rat [9]; [24]", "result": 20, "unit": "mg/kg/day"}, {"measurement": "NOAEL", "setting": "rat [9]; [24]", "result": "≥ 80", "unit": "mg/kg/day"}, {"measurement": "LEL", "setting": "rat [9]; [25]", "result": 80, "unit": "mg/kg/day"}, {"measurement": "LOAEL", "setting": "rat [9]; [25]", "result": "> 80", "unit": "mg/kg/day"}, {"measurement": "NEL", "setting": "rat [9]; [25]", "result": 20, "unit": "mg/kg/day"}, {"measurement": "NOAEL", "setting": "rat [9]; [25]", "result": "≥ 80", "unit": "mg/kg/day"}, {"measurement": "LEL", "setting": "rat [9]; [26]", "result": 80, "unit": "mg/kg/day"}, {"measurement": "LOAEL", "setting": "rat [9]; [26]", "result": "> 80", "unit": "mg/kg/day"}, {"measurement": "NEL", "setting": "rat [9]; [26]", "result": 20, "unit": "mg/kg/day"}, {"measurement": "NOAEL", "setting": "rat [9]; [26]", "result": "≥ 80", "unit": "mg/kg/day"}]}
